Measurements reported in US5021421A, “2-(1-Piperazinyl)-4-phenylcycloalkanopyridine derivatives, processes for the production thereof, and pharmaceutical composition containing the same” (Dainippon Pharmaceutical Co., Ltd., priority 1989, dated 1991).
Where two headings read alike, the source gives them in different places.

Legend:
exploratory activity = experiment: Inhibitory effect on exploratory activity (Animex activity meter); type: in vivo, mice (Std-ddy strain); conditions: oral, 2 h after administration, 3 min counting; dose not given
Description: A group of 5 male mice (Std-ddy strain, 20-25 g) was used. Two hours after oral administration of the test compound, mice were placed individually in a test box (23×35×30 cm) on Animex activity meter (Farad Co.). Immediately thereafter, activity counting was started and lasted for three minutes. The mean counts of the compound-treated group were compared with those of the corresponding control (non-dosed) group, and the percent inhibition was calculated.

adrenaline (α1) receptor = experiment: In vitro binding to adrenaline (α1) receptor, [3H] WB-4101; set-up: species or system rats; conditions: [3H] WB-4101, rat brain crude synaptosome fraction
Description: (§1) Dopamine (D2), serotonin (S1, S2) and adrenaline (α1) receptor binding assays were carried out according to the methods of I. Creese et al. [Eur. J. Pharmacol., 46, 377 (1977), S. J. Peroutka et al. [Mol. Pharmacol. 16, 687 (1979)], J. E. Leysen et al. [Mol. Pharmacol., 21, 301 (1982)] and D. C. U'Prichard et al. [Mol. Pharmacol., 13, 454 (1977)], respectively.
(§2) Crude synaptosome fractions were prepared from some brain regions in rats for receptor sources. Radioactive ligands used were [^3 H] spiperone (D2), [^3 H] serotonin (S1), [^3 H] ketanserin (S2) and [^3 H] WB-4101 (α1). The binding assay was performed by incubating aliquots of synaptosome fraction in buffer solution (final volume: 1 ml) containing a [^3 H] labelled ligand and a test compound. The assay was terminated by rapid filtration through Whatman GF/B glass fiber filters attached to a cell-harvester (Brandel) and radioactivity on the filters was counted in a Packard Triscarb scintillation counter. Specific binding was calculated as a difference between amounts of radioactivity in the presence and absence of an unlabelled ligand [spiperone (D2), serotonin (S1), methysergide (S2) and prazosin (α1)]. The IC50 value of the test compounds (concentration causing 50% inhibition of [^3 H] ligand specific binding) was determined by probit analysis.

dopamine (D2) receptor = biological target: T1, dopamine (D2) receptor (Rattus norvegicus, UniProt P61169); experiment: In vitro binding to dopamine (D2) receptor, [3H] spiperone; set-up: species or system rats
T1 construct: Crude synaptosome fractions were prepared from some brain regions in rats for receptor sources; from tissue
Description: as §1, §2

[1] = test system: brain monoamine metabolites; experiment: Increasing effect on concentration of brain monoamine metabolites; type: in vivo, mice (Std-ddy strain); conditions: Mus musculus, 2 h, non-dosed=100
Description: A group of 5 male mice (Std-ddy strain, 25-30 g) was used for examining effect of the test compounds on concentration of brain monoamine metabolites.
Mice were killed by decapitation 2 hours after treatment with the test compounds. Brains were quickly taken out, homogenized in 1N formic acid-acetone solution, and centrifuged in a refrigerated ultracentrifuge. The supernatant was evaporated by blowing with N2 gas. Then, the residue was again resolved in 0.01 N acetic acid, and served for determining concentration of dopamine metabolites, 3,4-dihydroxyphenylacetic acid (DOPAC) and homovanillic acid (HVA), a norepinephrine metabolite, 3-methyl-4-hydroxyphenylethylene glycol (MOPEG), and a serotonin metabolite, 5-hydroxyindole-3-acetic acid (5-HIAA) concentrations by HPLC with electrochemical detection. The effect of the test compounds on concentration of each monoamine metabolite is shown as % of control (level of non-dosed animals=100) in Table 4.

[2] = test system: apomorphine-induced vomiting; experiment: Antagonistic effect on apomorphine-induced vomiting; type: in vivo, dogs (Beagle); conditions: Canis lupus familiaris, sc, read-out: Inhibitory ratio (apomorphine-induced vomiting)
Description: A group of 3-4 dogs (Beagle, 8-15 kg) was used for examining effects on the test compounds on apomorphine-induced vomiting, a known test for evaluating neuroleptic drugs.
Each dog was given a subcutaneous injection of apomorphine hydrochloride (0.3 mg/kg) two hours after the treatment of the test compounds. Then, the frequency of oral vomiting was counted for one hour. The mean counts of the compound-treated group were compared with those of the corresponding control (non-dosed) group, and the percent inhibition was calculated.

serotonin (S2) receptor = biological target: T2, serotonin (S2) receptor (Rattus norvegicus, UniProt P14842); experiment: In vitro binding to serotonin (S2) receptor, [3H] ketanserin; set-up: species or system rats; conditions: [3H] ketanserin, rat brain crude synaptosome fraction
T2 construct: Crude synaptosome fractions were prepared from some brain regions in rats for receptor sources; from tissue
Description: as §1, §2

serotonin (S1) receptor = experiment: In vitro binding to serotonin (S1) receptor, [3H] serotonin; set-up: species or system rats; conditions: rat brain crude synaptosome fraction
Description: as §1, §2

[3] = test system: scopolamine-induced deficit of spontaneous alternation; experiment: Improving effect on scopolamine-induced deficit of spontaneous alternation behavior (T-maze); type: in vivo, mice (Std-ddY strain); conditions: scopolamine hydrobromide 1 mg/kg i.p.
Description: A group of 15-25 male mice (Std-ddY strain, 22-28 g) was used for evaluating effect of the test compounds on scopolamine-induced deficit of spontaneous alternation in a T-maze, which is a known animal model of memory impairment due to hypofunction of the cholinergic nervous system. The T-maze used consists of a stem and two arms which are 25 cm long, 5 cm wide and 10 cm high. The first 10 cm of the stem and last 10 cm of each arm are divided by sliding doors into start and goal boxes.
A test compound and scopolamine hydrobromide (1 mg/kg) were intraperitoneally administered to each mouse, and after 30 minutes a test of spontaneous alternation task in the T-maze was continuously repeated for 8 trials. Commonly, naive mice alternate each (right and left) goal box in turn, but scopolamine-treated animals tend to enter the same goal box repeatedly. The effect of the test compounds was expressed as % improvement (complete improvement to the alternation level of non-dosed mice=100%).

[4] = test system: cycloheximide-induced amnesia of passive avoidance response; experiment: Improving effect on cycloheximide-induced amnesia of passive avoidance response; type: in vivo, mice (Std-ddY strain); conditions: cycloheximide 60 mg/kg s.c., retention at 24 h
Description: Anti-amnesic effect of the test compounds was examined using mice given cycloheximide, which is a known amnesia-inducing agent.
A group of 15-20 male mice (Std-ddY strain, 27-33 g) was subjected to training and retention trials for a passive avoidance task in a step-down apparatus (30×30×50 cm) with a grid floor and a wooden platform (4×4×4 cm) in a center of the floor. In the training trial, each mouse was first placed on the platform. When the mouse stepped down on the grid floor, an electric shock (1 Hz, 0.5 sec, 60 VDC) was delivered to the feet for 15 seconds. Immediately after the training trial, cycloheximide (60 mg/kg, s.c.) and a test compound (i.p.) were administered. The retention trial was carried out 24 hours thereafter, the time from placing again each mouse placed on the platform until stepping down on the grid floor (step-down latency) was measured. The step-down latency in the retention trial was markedly shortened by treatment of cycloheximide (amnesia). The effect of test compounds was assessed by % improvement (complete improvement to the latency level of non-dosed animals=100%).

[5] = [3H] spiperone, rat brain crude synaptosome fraction, read-out: IC50 D2
[6] = read-out: 5-HIAA concentration, % of control
[7] = read-out: DOPAC concentration, % of control
[8] = read-out: HVA concentration, % of control
[9] = read-out: MOPEG concentration, % of control

T2 sequence (P14842 whole entry): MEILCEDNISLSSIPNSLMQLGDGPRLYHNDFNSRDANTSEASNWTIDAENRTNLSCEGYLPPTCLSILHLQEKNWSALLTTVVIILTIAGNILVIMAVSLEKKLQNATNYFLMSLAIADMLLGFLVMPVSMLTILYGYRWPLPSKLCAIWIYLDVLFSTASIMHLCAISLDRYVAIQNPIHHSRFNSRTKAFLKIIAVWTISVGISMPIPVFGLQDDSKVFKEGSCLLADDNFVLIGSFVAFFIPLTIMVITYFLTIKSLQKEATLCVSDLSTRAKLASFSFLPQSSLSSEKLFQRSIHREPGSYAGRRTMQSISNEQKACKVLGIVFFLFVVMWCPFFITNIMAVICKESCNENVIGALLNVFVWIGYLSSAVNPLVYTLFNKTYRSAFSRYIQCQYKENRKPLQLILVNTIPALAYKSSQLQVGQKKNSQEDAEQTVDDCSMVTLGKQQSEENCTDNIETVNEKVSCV
T1 sequence (P61169 whole entry): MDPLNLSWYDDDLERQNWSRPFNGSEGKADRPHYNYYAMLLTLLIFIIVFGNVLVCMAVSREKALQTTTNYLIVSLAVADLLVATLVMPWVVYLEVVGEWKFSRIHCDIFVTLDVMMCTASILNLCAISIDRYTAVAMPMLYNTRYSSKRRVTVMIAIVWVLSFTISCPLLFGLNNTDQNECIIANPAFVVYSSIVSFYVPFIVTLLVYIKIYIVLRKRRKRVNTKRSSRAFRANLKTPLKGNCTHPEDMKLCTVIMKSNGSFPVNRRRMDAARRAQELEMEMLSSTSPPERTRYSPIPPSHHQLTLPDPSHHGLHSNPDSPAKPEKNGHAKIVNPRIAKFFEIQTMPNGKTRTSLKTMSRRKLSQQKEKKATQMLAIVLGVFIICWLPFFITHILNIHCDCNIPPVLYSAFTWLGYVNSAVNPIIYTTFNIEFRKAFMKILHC

| SMILES | IC50 (adrenaline (α1) receptor) [nM] | IC50 (dopamine (D2) receptor; [5]) [nM] | IC50 (serotonin (S2) receptor) [nM] | IC50 (serotonin (S1) receptor) [nM] | response vs control in vivo at 10 mg/kg [1, 6] [%] | response vs control in vivo at 10 mg/kg [1, 7] [%] | response vs control in vivo at 10 mg/kg [1, 8] [%] | response vs control in vivo at 10 mg/kg [1, 9] [%] | Improvement (spontaneous alternation) ([3]; dose 10.0 mg/kg i.p.) [%] | Improvement (step-down latency) ([4]; dose 0.5 mg/kg i.p.) [%] | Improvement (step-down latency) ([4]; dose 2.0 mg/kg i.p.) [%] | other results |
| --- | --- | --- | --- | --- | --- | --- | --- | --- | --- | --- | --- | --- |
| CCN1CCN(c2cc(-c3ccc(F)cc3)c3c(n2)CCCCCC3)CC1 [Example 1b, 2-(4-ethyl-1-piperazinyl)-4-(4-fluorophenyl)-5,6,7,8,9,10-hexahydrocycloocta[b]pyridine] | 92 | 46 | 7 |  |  |  |  |  |  |  |  | Inhibitory ratio (exploratory activity) (exploratory activity): 83.7%; response vs control in vivo at 1 mg/kg [1, 6]: 102%; response vs control in vivo at 1 mg/kg [1, 7]: 235%; response vs control in vivo at 1 mg/kg [1, 8]: 212%; response vs control in vivo at 1 mg/kg [1, 9]: 118%; inhibition in vivo at 0.3 mg/kg ([2]; dose 0.3 mg/kg, apomorphine 0.3 mg/kg s.c. 2 h after compound): 88% |
| CCN1CCN(c2cc(-c3ccc(F)cc3)c3c(n2)CCCC3)CC1 [Example 15] | 35 | 58 | 19 | 1700 | 108 | 277 | 235 | 118 |  |  |  | inhibition in vivo at 3 mg/kg ([2]; dose 3.0 mg/kg, apomorphine 0.3 mg/kg s.c. 2 h after compound): 100% |
| CCN1CCN(c2cc(-c3ccccc3)c3c(n2)CCCCC3)CC1 [Example 23, 2-(4-Ethyl-1-piperazinyl)-4-phenyl-6,7,8,9-tetrahydro-5H-cyclohepta[b]pyridine] | 320 | 96 | 7.7 | 2900 | 145 | 344 | 320 | 115 |  |  |  |  |
| c1ccc(-c2cc(N3CCNCC3)nc3c2CCCC3)cc1 [Example 86, 2-(1-piperazinyl)-4-phenyl-5,6,7,8-tetrahydroquinoline] | 530 | 730 | 81 | 1400 |  |  |  |  | 47.6 |  |  |  |
| c1ccc(-c2cc(N3CCNCC3)nc3c2CCC3)cc1 [Example 87, 2-(1-Piperazinyl)-4-phenyl-6,7-dihydro-5H-1-pyrindine] | 94 | 270 | 28 | 820 | 136 | 180 | 194 | 117 |  | 48 | 77 | Improvement (spontaneous alternation) ([3]; dose 0.5 mg/kg i.p.): 48.0%; Improvement (spontaneous alternation) ([3]; dose 2.0 mg/kg i.p.): 60.0% |
| Fc1ccc(-c2cc(N3CCNCC3)nc3c2CCC3)cc1 [Example 88, 2-(1-Piperazinyl)-4-(4-fluorophenyl)-6,7-dihydro-5H-1-pyrindine] | 65 |  | 9.1 | 670 | 120 | 329 | 209 | 136 | 37.0 |  | 60 | IC50 (dopamine (D2) receptor): 70 nM; inhibition in vivo at 3 mg/kg ([2]; 2 h): 94% |
| Fc1ccc(-c2cc(N3CCNCC3)nc3c2CCCC3)cc1 [Example 92, 2-(1-Piperazinyl)-4-(4-fluorophenyl)-5,6,7,8-tetrahydroquinoline] | 380 | 300 | 27 | 1900 | 139 | 208 | 192 | 121 |  |  | 44 | Improvement (step-down latency) ([4]; dose 10.0 mg/kg i.p.): 78% |
| c1ccc(-c2cc(N3CCNCC3)nc3c2CCCCC3)cc1 [Example 96] | 1100 | 660 | 62 | 4900 | 127 | 201 | 194 | 115 |  | 81 | 64 |  |
| Fc1ccc(-c2cc(N3CCNCC3)nc3c2CCCCC3)cc1 [Example 97, 2-(1-Piperazinyl)-4-(4-fluorophenyl)-6,7,8,9-tetrahydro-5H-cyclohepta[b]pyridine] | 890 | 260 | 5.1 | 4100 | 128 | 232 | 176 | 125 | 32.0 | 38 | 36 |  |
